Laboratory results from patent US8754057B2, “Inhibition of apoptosis-specific eIF-5A(eIF-5A1″) with antisense oligonucleotides and siRNA as anti-inflammatory therapeutics” (Senesco Technologies, Inc., priority 2003, dated 2014).

Tests used:
[1] = system: apoptosis-specific eIF-5A; assay: Apoptosis-specific eIF-5A expression in U937 cells with PMA or LPS; assay type: cell-based, human
Description: (§1) U937 cells were collected and counted 16 hours after electroporation. 200,000 cells in 1 ml of media were added to each well of 24-well plates. Macrophage differentiation was stimulated by adding phorbol 12-myristate 13-acetate (PMA; 100 ng/ml). After 48 h with PMA., >80% of the monocytes had transformed from cells in suspension (monocytes) to adherent cells (macrophages). At 48 hours the media and any non-adherent cells were removed and fresh RPMI media with 10% FBS (1 ml per well) was added. The cells were left for 24 hours in fresh media to become quiescent.
72 hours after PMA addition to U937 cells, lipopolysaccharide (LPS; 100 ng/ml; from E. coli, serotype 0111), interferonγ (IFNγ; 100 Units/ml), or a combination of LPS and IFNγ were added to the wells. Samples were collected before stimulator addition (72h), and at various times after addition as outlined in FIG. 108. To collect samples for analysis of cytokine secretion, the media from each well was transferred to clean microcentrifuge tubes and cleared of any debris by centrifugation at 13000×g for 3 mins. The media was stored at −20° C. in 200-250 μl aliquots prior to analysis. […]
The protein concentration in the cell lysates was determined by bicinchoninic acid assays (BCA) with bovine serum albumin used as the standard. […]

U937 cells = assay: Induction of macrophage differentiation in U937 cells; assay type: cell-based, human; conditions: 100 ng/ml PMA, 48 h
Description: as §1

[2] = system: lamina cribrosa cell line #506; assay type: cell-based, human; conditions: confluent LC cells, 48 hours; 50 μM camptothecin, 10 ng/ml TNF-α; Hoescht staining
Description: FIG. 83 is a graph showing percent apoptosis of lamina cribrosa cell line #506 in response to treatment with camptothecin and TNF-α. Lamina cribrosa cell line #506 cells were seeded at 40,000 cells per well onto an 8-well culture slide. Three days later the confluent LC cells were treated with either 10 ng/ml TNF-α, 50 μM camptothecin, or 10 ng/ml TNF-α plus 50 μM camptothecin. An equivalent volume of DMSO, a vehicle control for camptothecin, was added to the untreated control cells. The cells were stained with Hoescht 33258 48 hours after treatment and viewed by fluorescence microscopy using a UV filter. Cells with brightly stained condensed or fragmented nuclei were counted as apoptotic.
Apoptosis was induced in lamina cribrosa cells using a combination of 50 μM camptothecin (Sigma) and 10 ng/ml TNF-α (Leinco Technologies).
Since TNF-α is believed to play an important role during the glaucomatous process, the susceptibility of LC cells to the cytotoxic effects of TNF-α was examined. Confluent LC cells were exposed to either camptothecin, TNF-α, or a combination of camptothecin and TNF-α for 48 hours (FIG. 83).

[3] = system: apoptosis-specific eIF-5A; assay: Apoptosis-specific eIF-5A expression in LC cells during camptothecin or TNF-α plus camptothecin treatment; assay type: cell-based, human; conditions: LC cells #506; 50 μM camptothecin, 10 ng/ml TNF-α; 1, 4, 8, 24 hours
Description: Lamina cribrosa cell #506 cells were seeded at 40,000 cells per well onto a 24-well plate. Three days later the LC cells were treated with either 50 μM camptothecin or 10 ng/ml TNF-α plus 50 μM camptothecin and protein lysate was harvested 1, 4, 8, and 24 hours later. An equivalent volume of DMSO was added to control cells as a vehicle control and cell lysate was harvested 1 and 24 hours later. 5 μg of protein from each sample was separated by SDS-PAGE, transferred to a PVDF membrane, and Western blot with anti-apoptosis-specific eIF-5A antibody. The bound antibody was detected by chemiluminescence and exposed to x-ray film. The membrane was then stripped and re-blotted with anti-β-actin as an internal loading control.
Protein was isolated for Western blotting from lamina cribrosa cells growing on 24-well plates by washing the cells twice in PBS (8 g/L NaCl, 0.2 g/L KCl, 1.44 g/L Na2HPO4, and 0.24 g/L KH2PO4) and then adding 50 μl of lysis buffer [2% SDS, 50 mM Tris-HCl (pH 7.4)]. The cell lysate was collected in a microcentrifuge tube, boiled for 5 minutes and stored at −20° C. until ready for use. Protein concentrations were determined using the Bicinchoninic Acid Kit (BCA; Sigma). For Western blotting, 5 μg of total protein was separated on a 12 SDS-polyacrylamide gel. The separated proteins were transferred to a polyvinylidene difluoride membrane. […]

corpus luteum = assay: DNA laddering in rat corpus luteum after PGF-2α; assay type: in vivo; conditions: superovulated rat corpus lutea; 0, 1, or 24 hours after injection
Description: The degree of apoptosis was determined by DNA laddering. Genomic DNA was isolated from dispersed corpus lineal cells or from excised corpus luteum tissue using the QIAamp DNA Blood Kit (Qiagen) according to the manufacturer's instructions. Corpus luteum tissue was excised before the induction of apoptosis by treatment with PGF-2α, 1 hour and 24 hours after induction of apoptosis. The isolated DNA was end-labeled by incubating 500 ng of DNA with 0.2 μCi [α-^32P]dCTP, 1 mM Tris, 0.5 mM EDTA, 3 units of Klenow enzyme, and […] each of dATP, dGTP, and dTTP at room temperature for 30 minutes. Unincorporated nucleotides were removed by passing the sample through a 1 ml Sepadex G-50 column according to Sambrook et al. The samples were then resolved by Tris-acetate-EDTA (1.8%) gel electrophoresis. The gel was dried for 30 minutes at room temperature under vacuum and exposed to x-ray film at −80° C. for 24 hours.
In one experiment, the degree of apoptosis in superovulated rat corpus lutea was examined either 0, 1, or 24 hours after injection with PGF-2α. In the 0 hour control, the ovaries were removed without PGF-2α injection. […] In this figure, the top panel is an autoradiograph of the Northern blot probed with the ^32P-dCTP-labeled 3′-untranslated region of rat corpus luteum apoptosis-specific DHS cDNA. The lower panel is the ethidium bromide stained gel of total RNA. […]

[4] = system: apoptosis-specific eIF-5A and DHS; assay: Northern blot of rat corpus luteum RNA after PGF-2α; assay type: in vivo
Source text: […] of total RNA isolated from rat corpus luteum at various stages of apoptosis were separated on 1% denatured formaldehyde agarose gels and immobilized on nylon membranes. The full-length rat apoptosis-specific eIF-5A cDNA (SEQ ID NO:1) labeled with ^32P-dCTP using a random primer kit (Boehringer) was used to probe the membranes 7×10^7. Alternatively, full length rat DHS cDNA (SEQ ID NO:6) labeled with ^32P-dCTP using a random primer kit (Boehringer) was used to probe the membranes (7×10^7 cpm). The membranes were washed once with 1×SSC, 0.1% SDS at room temperature and three times with 0.2×SSC, 0.1% SDS at 65° C. The membranes were dried and exposed to X-ray film overnight at −70° C.

With `CCCCCCCCCCCCCC(=O)O[C@@H]1[C@@H](C)[C@@]2(O)[C@@H](C=C(CO)C[C@]3(O)C(=O)C(C)=C[C@@H]23)[C@@H]2C(C)(C)[C@]12OC(C)=O` [PMA, phorbol 12-myristate 13-acetate] the “apoptosis-specific eIF-5A expression” value [1] was “upregulated” and the “monocytes transformed from cells in suspension to adherent cells (macrophages)” value (U937 cells) was > 80%.

For `CC[C@@]1(O)C(=O)OCc2c1cc1n(c2=O)Cc2cc3ccccc3nc2-1` [camptothecin], the “cell death of LC cells” value [2] was “approximately 30%” and the “expression of apoptosis-specific eIF-5A protein” value [3] was “did not alter significantly”.

For `CCCCC[C@H](O)/C=C/[C@@H]1[C@@H](C/C=C\CCCC(=O)O)[C@@H](O)C[C@H]1O` [PGF-2α], the “laddering of low molecular weight DNA fragments” value (corpus luteum) was “discernible within 1 hour after induction of apoptosis and is pronounced by 24 hours”, the “expression of DHS” value [4] was “increased substantially within 1 hour of treatment” and the “expression of apoptosis-specific eIF-5A” value [4] was “significantly enhanced”.
